1 molecule from US11697646B2, “Triazole N-linked carbamoyl cyclohexyl acids as LPA antagonists” (BRISTOL-MYERS SQUIBB COMPANY, priority 2017, dated 2023) can be followed below.

The structures appear in SMILES notation.

In one assay the target is T1, human LPA1 (Homo sapiens, UniProt Q92633).
T1 construct: expressed in transfected cells; host or cells: Chinese hamster ovary (CHO) cells
Description: LPA1 functional antagonist assay (calcium flux). The format is cell-based. To be noted: CHO cells overexpressing human LPA1; calcium flux induced by 10 nM LPA; read-out: hLPA1 IC50. As to the method:
The effectiveness of compounds of the present invention as LPA1 inhibitors can be determined in an LPA1 functional antagonist assay as follows:
The cells were then equilibrated to room temperature for 30 minutes before the assay. […] IC50 values were determined by fitting data to a 4-parameter logistic equation (GraphPad Prism, San Diego Calif.).

The subject of a further assay is plasma histamine. Description: LPA challenge with plasma histamine evaluation (acute in vivo histamine assay). Conditions: 1 mg/kg dose. As to the method: LPA Challenge with Plasma Histamine Evaluation.
Compound is dosed orally p.o. 2 hours to CD-1 female mice prior to the LPA challenge. The mice are then dosed via tail vein (IV) with 0.15 mL of LPA in 0.1% BSA/PBS (2 μg/μL). Exactly 2 minutes following the LPA challenge, the mice are euthanized by decapitation and the trunk blood is collected. These samples are collectively centrifuged and individual 75 μL samples are frozen at −20° C. until the time of the histamine assay.
The plasma histamine analysis was run by standard EIA (Enzyme Immunoassay) methods. Plasma samples were thawed and diluted 1:30 in 0.1% BSA in PBS. The EIA protocol for histamine analysis as outlined by the manufacturer was followed (Histamine EIA, Oxford Biomedical Research, EA #31).
The LPA used in the assay is formulated as follows: LPA (1-oleoyl-2-hydroxy-sn-glycero-3-phosphate (sodium salt), 857130P, Avanti Polar Lipids) is prepared in 0.1% BSA/PBS for total concentration of 2 μg/μL, 13 mg of LPA is weighed and 6.5 mL 0.1% BSA added, vortexed and sonicated for −1 hour until a clear solution is achieved.

T1 sequence (Q92633 whole entry): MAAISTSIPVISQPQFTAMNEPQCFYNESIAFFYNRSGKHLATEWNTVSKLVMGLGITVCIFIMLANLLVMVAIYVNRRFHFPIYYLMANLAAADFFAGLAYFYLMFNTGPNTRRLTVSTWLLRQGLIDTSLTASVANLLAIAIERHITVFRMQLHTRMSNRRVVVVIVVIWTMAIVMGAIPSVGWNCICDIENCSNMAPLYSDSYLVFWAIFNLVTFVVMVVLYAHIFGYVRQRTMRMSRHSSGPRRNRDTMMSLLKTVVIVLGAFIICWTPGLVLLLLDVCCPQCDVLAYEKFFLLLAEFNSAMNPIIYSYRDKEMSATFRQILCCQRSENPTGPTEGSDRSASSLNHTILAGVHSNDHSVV

For orientation: IC50 means the concentration that gives 50% inhibition. `Cc1nc(-c2nnn(C)c2CNC(=O)OCc2ccccc2)ccc1O[C@H]1CCC[C@H](C(=O)O)C1` [Example 34, (1S,3S)-3-((6-(5-((((benzyloxy)carbonyl)amino)methyl)-1-methyl-1H-1,2,3-triazol-4-yl)-2-methylpyridin-3-yl)oxy)cyclohexane-1-carboxylic acid]: at human LPA1, the IC50 was found to be 9 nM. For the same molecule, the “acute in vivo histamine assay in CD-1 mice: % histamine” value with plasma histamine is −96%.
